Here are results for three compounds from patent publication US11976066B1 (priority 2023, dated 2024).

The structures appear in SMILES notation. Converted amounts (≈) assume the structure as drawn. Read-outs that look alike come from different tables or passages of the source.

This experiment deals with Mycobacterium tuberculosis H37Rv. The experiment is described as follows: Resazurin Microplate Assay (REMA), anti-tubercular activity, susceptible strain. The conditions noted are these: 192 h. The class given is cell-based.
Where [1] appears, read: H37Rv strain, 8 days incubation at 37° C, Middlebrook 7H9 broth, read-out: MIC Susceptible (H37Rv).

Usually MIC stands for the smallest concentration in the dilution series that meets the test's criterion for growth inhibition. `CCOC(=O)c1cc(C(=O)c2ccc(F)cc2)n2ccc(N)cc12` [Compound 3a, Ethyl 7-amino-3-(4-fluorobenzoyl)indolizine-1-carboxylate]: for the setting “read-out: MIC Susceptible (H37Rv), H37Rv strain, 8 days incubation at 37° C, Middlebrook 7H9 broth”, the minimal inhibitory concentration (MIC) was around 16 µg/mL (≈ 49 µM).
Regarding `CCOC(=O)c1cc(C(=O)c2ccccc2[N+](=O)[O-])n2ccc(N)cc12` [Compound 3b, Ethyl 7-amino-3-(2-nitrobenzoyl)indolizine-1-carboxylate], under setting [1], the MIC is around 8 µg/mL (≈ 22.6 µM).
On the same count and under the same terms, then `CCOC(=O)c1cc(C(=O)c2ccc(Br)cc2)n2ccc(N)cc12` [Compound 3e, Ethyl 7-amino-3-(4-bromobenzoyl)indolizine-1-carboxylate], with around 32 µg/mL (≈ 82.6 µM).
